Measured values as given in patent US6875425B2, “Skin lightening agents, compositions and methods” (Unilever Home & Personal Care USA, priority 2002, dated 2005).

Test system: mushroom tyrosinase
Experiment: Mushroom Tyrosinase Assay
Type: biochemical
Conditions: for % of Control (Melanin Synthesis): L-DOPA substrate, slope of 475-nm absorbency vs. ethanol control
Protocol: Mushroom tyrosinase inhibition is indicative of reduction in melanin synthesis, thereby showing skin lightening effect. […] Following an initial measurement of background absorbency at 475-nm, 20 microliters of mushroom tyrosinase (Sigma T-7755; 6050 units/ml) was added and incubated at room temperature. Absorbency is read at 475-nm over the following time points: 0, 2, 4, and 6.5 minutes. The data is plotted as 475-nm absorbency vs. time (minutes) and the slope of the line is calculated (ΔAbs 475nm/min). Values are expressed as the percentage of the respective untreated ethanol control reaction. [formula]

% of Control (Melanin Synthesis) (0.1 uM compound) | % of Control (Melanin Synthesis) (1 uM compound) | % of Control (Melanin Synthesis) (10 uM compound) | % of Control (Melanin Synthesis) (100 uM compound) | activity in the mushroom tyrosinase assay (in words) (summary of Table 8) | Compound
73 % of Control | 46 % of Control | 31 % of Control | 21 % of Control |  | CCc1ccc(O)cc1O [4-Ethyl Resorcinol]
97 % of Control | 98 % of Control | 98 % of Control | 100 % of Control | does not display activity | Oc1cccc(O)c1 [Resorcinol]

Compound | % of Control (Melanin Synthesis) (0.1 uM compound) | % of Control (Melanin Synthesis) (1 uM compound) | % of Control (Melanin Synthesis) (10 uM compound) | % of Control (Melanin Synthesis) (100 uM compound) | activity in the mushroom tyrosinase assay (in words) (summary of Table 8)
Oc1ccc(C2SCCCS2)c(O)c1 [1,3-di-Thiane Resorcinol] | 87 % of Control | 57 % of Control | 48 % of Control | 47 % of Control | 
